Laboratory results: ChEMBL document CHEMBL5465560, “Selectivity Literature for EUbOPEN Chemogenomic Library” (2024)

Assays:
[1] = molecular target: Serine/threonine-protein kinase Nek6 (Homo sapiens) (UniProt Q9HC98); assay: Selectivity interaction (KinomeScan (DiscoverX)) EUB0000655a NEK6; conditions: at 10 µM
[2] = molecular target: Cyclin-dependent kinase 2/cyclin E (Homo sapiens, UniProt P24941); assay: Selectivity interaction (Enzyme panel (AstraZeneca, AlphaScreen, functional assay)) EUB0000621a CDK2; assay type: protein-complex assay
[3] = molecular target: T1, Ephrin type-B receptor 4 (Homo sapiens) (UniProt P54760); assay: Selectivity interaction (Kinase panel (Invitrogen)) EUB0000639a EPHB4; conditions: at 200 nM
T1 sequence (whole entry): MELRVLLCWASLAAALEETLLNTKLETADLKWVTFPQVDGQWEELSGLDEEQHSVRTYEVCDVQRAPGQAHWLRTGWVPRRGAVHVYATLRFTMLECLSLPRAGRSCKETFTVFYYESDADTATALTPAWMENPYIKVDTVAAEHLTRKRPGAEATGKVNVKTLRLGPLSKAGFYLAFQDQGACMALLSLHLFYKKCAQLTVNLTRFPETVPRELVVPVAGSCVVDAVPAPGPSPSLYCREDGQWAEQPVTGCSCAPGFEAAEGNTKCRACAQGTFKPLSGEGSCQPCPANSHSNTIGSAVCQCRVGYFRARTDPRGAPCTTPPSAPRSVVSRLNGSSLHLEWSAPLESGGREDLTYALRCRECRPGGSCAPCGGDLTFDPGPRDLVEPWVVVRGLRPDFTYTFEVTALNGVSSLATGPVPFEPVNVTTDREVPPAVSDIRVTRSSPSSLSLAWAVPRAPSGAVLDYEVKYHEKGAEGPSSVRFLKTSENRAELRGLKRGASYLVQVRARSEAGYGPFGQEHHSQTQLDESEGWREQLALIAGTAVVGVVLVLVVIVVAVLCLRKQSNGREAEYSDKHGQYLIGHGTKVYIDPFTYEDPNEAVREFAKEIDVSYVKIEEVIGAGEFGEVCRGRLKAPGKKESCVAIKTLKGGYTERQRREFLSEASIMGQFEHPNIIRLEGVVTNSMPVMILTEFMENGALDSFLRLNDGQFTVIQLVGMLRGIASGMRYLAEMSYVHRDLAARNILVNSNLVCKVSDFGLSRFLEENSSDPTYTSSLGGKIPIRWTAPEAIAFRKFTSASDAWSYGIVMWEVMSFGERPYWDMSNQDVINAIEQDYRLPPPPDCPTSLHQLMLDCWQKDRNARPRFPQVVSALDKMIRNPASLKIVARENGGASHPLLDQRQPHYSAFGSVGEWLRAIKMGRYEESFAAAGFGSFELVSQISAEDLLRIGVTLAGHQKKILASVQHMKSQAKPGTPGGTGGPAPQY

[4] = molecular target: T2, Inhibitor of nuclear factor kappa-B kinase subunit beta (Homo sapiens) (UniProt O14920); assay: Selectivity interaction (ActivX KiNativ screen (kinase selectivity in THP-1 cell lysates)) EUB0000639a IKBKB; assay type: subcellular; conditions: lysate, at 0.2 µM
T2 sequence (whole entry): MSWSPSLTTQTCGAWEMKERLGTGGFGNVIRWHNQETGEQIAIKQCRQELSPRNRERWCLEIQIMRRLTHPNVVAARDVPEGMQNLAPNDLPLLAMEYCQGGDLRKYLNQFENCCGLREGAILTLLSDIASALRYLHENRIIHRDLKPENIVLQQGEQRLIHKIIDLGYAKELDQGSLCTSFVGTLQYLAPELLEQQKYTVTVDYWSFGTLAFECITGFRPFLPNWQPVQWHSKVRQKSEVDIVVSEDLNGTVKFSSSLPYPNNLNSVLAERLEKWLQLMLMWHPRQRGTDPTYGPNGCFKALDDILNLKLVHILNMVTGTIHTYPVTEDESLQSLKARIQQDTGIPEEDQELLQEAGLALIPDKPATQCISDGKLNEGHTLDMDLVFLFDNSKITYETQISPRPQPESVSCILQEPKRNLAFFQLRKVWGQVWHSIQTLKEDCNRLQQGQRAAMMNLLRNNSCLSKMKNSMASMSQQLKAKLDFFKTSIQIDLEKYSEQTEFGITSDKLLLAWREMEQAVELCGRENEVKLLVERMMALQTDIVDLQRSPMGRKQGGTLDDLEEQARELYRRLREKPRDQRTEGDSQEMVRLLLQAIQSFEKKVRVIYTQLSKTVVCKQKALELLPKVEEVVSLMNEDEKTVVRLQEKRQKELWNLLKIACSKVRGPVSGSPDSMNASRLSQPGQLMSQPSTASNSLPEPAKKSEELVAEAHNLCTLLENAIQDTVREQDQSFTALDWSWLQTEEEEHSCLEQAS

[5] = molecular target: Serine/threonine-protein kinase PAK 6 (Homo sapiens) (UniProt Q9NQU5); assay: Selectivity interaction (Kinase panel (Invitrogen)) EUB0000639a PAK6; conditions: at 200 nM
Chain of Serine/threonine-protein kinase PAK 6 (Homo sapiens) (Q9NQU5 whole entry, looked up): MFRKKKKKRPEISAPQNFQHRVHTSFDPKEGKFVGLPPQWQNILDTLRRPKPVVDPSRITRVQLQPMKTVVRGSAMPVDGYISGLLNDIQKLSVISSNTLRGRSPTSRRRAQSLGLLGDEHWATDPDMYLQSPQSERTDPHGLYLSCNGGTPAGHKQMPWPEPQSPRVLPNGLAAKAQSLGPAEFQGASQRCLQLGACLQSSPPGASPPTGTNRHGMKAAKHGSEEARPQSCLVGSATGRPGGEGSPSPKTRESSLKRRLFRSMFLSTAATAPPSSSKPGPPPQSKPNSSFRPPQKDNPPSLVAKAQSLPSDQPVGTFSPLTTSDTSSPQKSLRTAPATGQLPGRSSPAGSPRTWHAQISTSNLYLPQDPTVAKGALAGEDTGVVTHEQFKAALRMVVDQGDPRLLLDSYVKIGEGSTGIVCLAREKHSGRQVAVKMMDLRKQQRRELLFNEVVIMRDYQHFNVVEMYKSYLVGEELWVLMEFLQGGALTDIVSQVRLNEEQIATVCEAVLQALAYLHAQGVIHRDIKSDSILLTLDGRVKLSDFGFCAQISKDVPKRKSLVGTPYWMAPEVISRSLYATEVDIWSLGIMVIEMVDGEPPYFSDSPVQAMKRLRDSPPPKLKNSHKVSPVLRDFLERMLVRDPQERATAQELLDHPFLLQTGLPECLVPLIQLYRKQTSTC

[6] = molecular target: Ribosomal protein S6 kinase alpha-1 (Homo sapiens, UniProt Q15418); assay: Selectivity interaction (SelectScreen profiling (Invitrogen)) EUB0000607a RPS6KA1; conditions: at 2 µM
Chain of Ribosomal protein S6 kinase alpha-1 (Q15418 whole entry): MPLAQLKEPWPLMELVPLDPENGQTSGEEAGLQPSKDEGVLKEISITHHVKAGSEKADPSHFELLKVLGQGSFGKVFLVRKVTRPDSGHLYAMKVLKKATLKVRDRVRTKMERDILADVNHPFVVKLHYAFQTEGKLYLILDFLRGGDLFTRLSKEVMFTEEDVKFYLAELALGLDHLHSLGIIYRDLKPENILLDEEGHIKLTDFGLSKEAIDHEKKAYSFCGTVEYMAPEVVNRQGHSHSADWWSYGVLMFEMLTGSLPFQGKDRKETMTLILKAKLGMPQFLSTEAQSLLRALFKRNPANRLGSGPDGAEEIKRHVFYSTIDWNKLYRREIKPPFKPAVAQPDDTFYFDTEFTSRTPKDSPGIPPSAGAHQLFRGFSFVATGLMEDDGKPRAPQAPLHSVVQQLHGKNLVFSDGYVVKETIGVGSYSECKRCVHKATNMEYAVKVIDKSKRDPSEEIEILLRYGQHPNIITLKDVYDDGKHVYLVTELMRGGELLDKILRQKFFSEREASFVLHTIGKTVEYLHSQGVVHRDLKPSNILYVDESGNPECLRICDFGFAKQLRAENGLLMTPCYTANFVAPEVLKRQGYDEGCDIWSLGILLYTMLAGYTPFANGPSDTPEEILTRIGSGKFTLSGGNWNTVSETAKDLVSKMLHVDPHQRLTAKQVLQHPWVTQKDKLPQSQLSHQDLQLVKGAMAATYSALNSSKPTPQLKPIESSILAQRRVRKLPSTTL

[7] = molecular target: Calcium/calmodulin-dependent protein kinase type 1B (Homo sapiens) (UniProt Q6P2M8); assay: Selectivity interaction (KinomeScan (DiscoverX)) EUB0001049a PNCK; conditions: at 1 µM
Chain of Calcium/calmodulin-dependent protein kinase type 1B (Homo sapiens) (Q6P2M8 whole entry): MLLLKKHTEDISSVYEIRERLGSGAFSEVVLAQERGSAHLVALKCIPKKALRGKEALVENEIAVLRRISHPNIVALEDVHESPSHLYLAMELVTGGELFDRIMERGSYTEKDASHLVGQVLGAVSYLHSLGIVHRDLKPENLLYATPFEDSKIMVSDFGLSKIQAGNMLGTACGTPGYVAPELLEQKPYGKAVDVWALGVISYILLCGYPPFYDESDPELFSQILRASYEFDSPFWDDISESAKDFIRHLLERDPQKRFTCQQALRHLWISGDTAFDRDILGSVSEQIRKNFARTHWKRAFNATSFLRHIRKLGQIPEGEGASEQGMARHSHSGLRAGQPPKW

[8] = molecular target: Interleukin-1 receptor-associated kinase 1 (Homo sapiens) (UniProt P51617); assay: Selectivity interaction (KinomeScan (DiscoverX)) EUB0000695a IRAK1; conditions: at 100 nM
Chain of Interleukin-1 receptor-associated kinase 1 (Homo sapiens) (P51617 whole entry, looked up): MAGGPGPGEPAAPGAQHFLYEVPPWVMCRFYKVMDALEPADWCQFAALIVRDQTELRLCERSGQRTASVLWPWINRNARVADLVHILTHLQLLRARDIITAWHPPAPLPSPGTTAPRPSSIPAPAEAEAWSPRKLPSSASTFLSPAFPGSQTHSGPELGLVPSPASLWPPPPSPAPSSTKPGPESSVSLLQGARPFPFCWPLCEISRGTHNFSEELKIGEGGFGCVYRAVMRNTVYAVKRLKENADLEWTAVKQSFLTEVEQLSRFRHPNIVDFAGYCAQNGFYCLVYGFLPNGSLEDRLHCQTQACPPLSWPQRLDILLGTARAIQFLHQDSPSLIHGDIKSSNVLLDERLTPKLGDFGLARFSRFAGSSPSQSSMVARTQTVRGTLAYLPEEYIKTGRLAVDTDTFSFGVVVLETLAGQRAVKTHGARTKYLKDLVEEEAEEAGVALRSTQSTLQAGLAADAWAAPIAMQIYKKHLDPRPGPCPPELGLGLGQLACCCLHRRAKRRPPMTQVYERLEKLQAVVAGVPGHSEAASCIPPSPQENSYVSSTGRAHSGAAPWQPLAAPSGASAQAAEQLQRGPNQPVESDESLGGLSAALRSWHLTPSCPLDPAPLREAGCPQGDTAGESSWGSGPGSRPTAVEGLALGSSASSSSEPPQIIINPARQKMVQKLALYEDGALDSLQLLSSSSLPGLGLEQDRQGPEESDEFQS

[9] = molecular target: T3, Protein arginine N-methyltransferase 7 (Homo sapiens) (UniProt Q9NVM4); conditions: at 1 µM
T3 sequence (whole entry): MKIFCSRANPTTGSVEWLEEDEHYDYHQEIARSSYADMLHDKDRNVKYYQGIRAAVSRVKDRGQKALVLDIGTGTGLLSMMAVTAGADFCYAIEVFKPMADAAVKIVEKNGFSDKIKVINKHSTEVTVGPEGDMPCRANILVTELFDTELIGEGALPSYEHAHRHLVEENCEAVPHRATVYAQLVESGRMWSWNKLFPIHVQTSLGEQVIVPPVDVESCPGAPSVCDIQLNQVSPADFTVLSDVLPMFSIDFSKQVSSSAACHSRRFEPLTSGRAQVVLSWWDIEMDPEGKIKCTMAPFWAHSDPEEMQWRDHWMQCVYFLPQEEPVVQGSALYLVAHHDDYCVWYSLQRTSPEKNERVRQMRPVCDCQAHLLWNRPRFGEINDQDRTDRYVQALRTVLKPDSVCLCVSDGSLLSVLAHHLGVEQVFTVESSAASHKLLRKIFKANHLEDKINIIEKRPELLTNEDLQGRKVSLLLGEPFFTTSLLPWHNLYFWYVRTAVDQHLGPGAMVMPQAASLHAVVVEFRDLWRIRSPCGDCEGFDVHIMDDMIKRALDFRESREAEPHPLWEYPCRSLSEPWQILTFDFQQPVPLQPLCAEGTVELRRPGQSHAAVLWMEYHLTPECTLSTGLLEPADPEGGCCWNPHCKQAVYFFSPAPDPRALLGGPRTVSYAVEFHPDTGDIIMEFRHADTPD

Chain of Serine/threonine-protein kinase Nek6 (Homo sapiens) (Q9HC98 whole entry): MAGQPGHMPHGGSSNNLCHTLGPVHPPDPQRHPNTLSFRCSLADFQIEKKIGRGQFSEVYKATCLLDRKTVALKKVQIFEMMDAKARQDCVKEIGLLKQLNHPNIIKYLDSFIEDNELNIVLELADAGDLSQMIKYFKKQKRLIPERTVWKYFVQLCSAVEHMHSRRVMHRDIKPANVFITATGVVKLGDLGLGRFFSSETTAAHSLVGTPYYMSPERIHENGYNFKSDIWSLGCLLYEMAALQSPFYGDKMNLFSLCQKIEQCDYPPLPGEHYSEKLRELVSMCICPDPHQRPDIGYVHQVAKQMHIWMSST

SMILES: CN(C)CCOc1ccc(-c2nc(-c3ccncc3)c(-c3ccc4c(c3)CC/C4=N\O)[nH]2)cc1
- % of control [1]: 100%

SMILES: Cc1cc([C@@H](C)Nc2ccccc2C(=O)O)c2nc(N3CCOCC3)cc(=O)n2c1 [AZD-6482]
- IC50 [2]: > 1000 µM

SMILES: CC[C@@H]1[C@H](F)C(=O)N[C@@H]1COc1nccc2cc(C(N)=O)c(OC)cc12 [ZIMLOVISERTIB]
- % of inhibition [3]: 4.33%
- % of inhibition [4]: -2.2%
- % of inhibition [5]: 5.8%

SMILES: CNC(=O)Nc1ccc(-c2nc(N3CC4CCC(C3)O4)c3cnn(C4CCC5(CC4)OCCO5)c3n2)cc1
- % of inhibition [6]: 4%

SMILES: COc1cc(Nc2nc(C)cc(-c3cnn4nc(OC)ccc34)n2)cc(C(F)(F)F)c1
- % of control [7]: 100%

SMILES: Cc1cc(F)c(C(=O)Nc2cccc(-c3nncn3C(C)C)n2)cc1-n1cnc(C2CC2)c1
- % of control [8]: 96%

SMILES: CNCCN1CCC(c2cc(CN(C)C(=O)c3cccc(Oc4ccccc4)c3)ccn2)CC1
- % activity [9]: > 90%
